Source: PMC10455802, “A New Mild Method for Synthesis of Marine Alkaloid Fascaplysin and Its Therapeutically Promising Derivatives” (Marine Drugs, 2023)

Columns and labels:
[1] = test system: PC-3 cells (human prostate cancer); assay: MTT assay, PC-3; assay type: cell-based; conditions: PC-3, 48 h, mean ± SD
Source text: (§1) To investigate the effect of the tert-butyl group on anticancer activity and selectivity, we evaluated the cytotoxic activity of unsubstituted fascaplysin (1) and 6-tert-butylfascaplysin (4) in various cancer and non-cancer cell lines using the well-established MTT method (Table 4). The effects on the human prostate cancer cells PC3 and DU145 (hormone-independent cells), 22Rv1 (partially hormone-independent cells), and LNCaP (hormone-sensitive cells), as well as on the normal (non-cancerous) human cells PNT2, MRC-9, and HEK293, were investigated. The mean cytotoxicity of compound 4 towards either cancerous or non-cancerous cells decreased by ~2-fold compared to that of fascaplysin (1).
(§2) Cell lines PC-3, DU145, 22Rv1, and LNCaP (human prostate cancer), as well as PNT2 (human prostate non-cancer), were purchased from ATCC (Manassas, VA, USA). Human embryonic kidney cells HEK 293T and human fibroblasts MRC-9 cell lines were purchased from ECACC (Salisbury, UK). […] The cells were cultured at 37 °C as monolayers in a humidified atmosphere of 5% CO2. […]
(§3) The cytotoxic activity of the synthesized compounds was examined using an MTT assay, which was performed as previously reported. […] The absorbance of the DMSO solutions was measured using a TECAN Infinite F200PRO reader (Männedorf, Switzerland). IC50 were calculated with the GraphPad Prism v.9.1.1 (San Diego, CA, USA).

[2] = test system: 22Rv1 cells (human prostate cancer); assay: MTT assay, 22Rv1; assay type: cell-based; conditions: 22Rv1, 48 h, mean ± SD
Source text: as §1, §2, §3

[3] = test system: DU145 cells (human prostate cancer); assay: MTT assay, DU145; assay type: cell-based; conditions: DU-145, DU145, 48 h, mean ± SD
Source text: as §1, §2, §3

[4] = test system: LNCaP cells (human prostate cancer); assay: MTT assay, LNCaP; assay type: cell-based; conditions: 48 h, mean ± SD
Source text: as §1, §2, §3

[5] = test system: PNT2 cells (human prostate non-cancer); assay: MTT assay, PNT2; assay type: cell-based; conditions: PNT2, 48 h, mean ± SD
Source text: as §1, §2, §3

[6] = test system: MRC-9 cells (human fibroblasts); assay: MTT assay, MRC-9; assay type: cell-based; conditions: MRC9, MRC-9, 48 h, mean ± SD
Source text: as §1, §2, §3

[7] = test system: HEK293 cells (human embryonic kidney); assay: MTT assay, HEK293; assay type: cell-based; conditions: HEK293, 48 h, mean ± SD
Source text: as §1, §2, §3

[8] = test system: human prostate cancer cells PC-3, 22Rv1, DU145, LNCaP; assay: MTT assay, cancer cells (average); assay type: cell-based; conditions: mean of PC-3, 22Rv1, DU145, LNCaP
Source text: as §1, §2, §3

[9] = test system: normal (non-cancerous) human cells PNT2, MRC-9, HEK293; assay: MTT assay, non-cancer cells (average); assay type: cell-based; conditions: mean of PNT2, MRC-9, HEK293
Source text: as §1, §2, §3

[10] = assay type: physicochemical
Experimental: (§4) It was proposed based on the HRMS data, and its obtainment can be explained by the tendency towards oxidation of the fragment of p-hydroxyaminophenol of compound 26 (Scheme 6).
Method A. Freshly distilled BF3·OEt2 (0.02 mL, […]) in 2 mL of dry acetonitrile was slowly added to a stirred solution of 3 (5 mg, 0.01 mmol) and anhydrous NaI (2 mg, […]) in 5 mL of dry acetonitrile at 0 °C for 10–15 min. The mixture was stirred at 0 °C for 2 h and then for another 8 h at room temperature. The reaction was monitored by TLC. The formation of a rapidly oxidizing compound, presumably compound 27, with by-products was observed.
Method B. To 5 mg of 9-benzyloxyfascaplysin (0.01 mmol) in 5 mL of ethanol in a 10 mL flat-bottom flask, a catalytic amount of 10% palladium on carbon was added; this was sealed with a septum and left to stir under a hydrogen atmosphere on a magnetic stirrer at room temperature for 16 h. The reaction mixture changed color to green after 15 min. The progress of the reaction was monitored by TLC. The formation of a rapidly oxidizing compound, presumably compound 27, with by-products was observed.

[11] = test system: double-stranded calf thymus DNA; assay: Thiazole orange displacement (DNA intercalation assay); assay type: binding; conditions: compared to fascaplysin (1)
Experimental: As the intercalation into DNA is considered an important component of the biological mechanism of action of fascaplysin, we evaluated and compared this activity for the synthesized 6-tert-butylfascaplysin (4) and unsubstituted fascaplysin (1). The drug–DNA complex formation was assessed by a fluorescent intercalator displacement assay based on the detachment of the thiazole orange (TO) intercalating agent from the DNA duplex by the tested compounds. The half-maximal concentrations for the effective displacement of TO from the DNA complex were calculated and are presented in Figure 3. In this experiment, the well-established DNA-binding compound, propidium iodide (PI), was used as a positive control.
A thiazole displacement assay was performed to measure the DNA intercalation activity. A mixture, containing 1 μM of double-stranded calf thymus DNA (recalculated as a concentration of base pairs) and 2 μM of thiazole orange (TO) staining agent dissolved in H2O, was used. The fascaplysins were added at concentrations of 0.39–25 μM. The DMSO concentration in the samples was not more than 0.02%. […] TO fluorescence was measured 7 min post-incubation at room temperature using a multimodal plate reader TECAN Spark (Männedorf, Switzerland) at the excitation λ = 480 nm. Fluorescence was recorded at λ = 530 nm with the bandwidth 10 nm. […]

[12] = test system: human prostate cancer cells and normal (non-cancerous) human cells; assay: MTT assay, cancer and non-cancer cell lines together (selectivity, overall cytotoxicity); assay type: cell-based
Source text: as §1
Cell lines PC-3, DU145, 22Rv1, and LNCaP (human prostate cancer), as well as PNT2 (human prostate non-cancer), were purchased from ATCC (Manassas, VA, USA). Human embryonic kidney cells HEK 293T and human fibroblasts MRC-9 cell lines were purchased from ECACC (Salisbury, UK). […] The cells were cultured at 37 °C as monolayers in a humidified atmosphere of 5% CO2. The culture mediums used for cultivation and experiments: for PNT2, LNCaP, 22Rv1, PC-3, and DU145 cells—RPMI Glutamax^TM-I medium (gibco® Life Technologies^TM, Paisley, UK), supplemented with 10% FBS (gibco® Life Technologies^TM) and 1% penicillin/streptomycin (Invitrogen, Waltham, MA, USA); for MRC-9 and HEK 293 cells—DMEM GlutamaxTM-I medium (gibco® Life Technologies^TM), supplemented with 10% FBS and 1% penicillin/streptomycin.
as §3, with “reported. In brief, the cells were seeded in 96-well plates (6000 cells/well) and incubated overnight. The medium was replaced with fresh medium containing the tested drugs, and the cells were incubated for an additional 48 h.” for “reported.”

[13] = Solubility observation of debenzylation product; assay type: physicochemical; conditions: product of benzyl removal from 3, presumably quinoid compound
Source text: as §4

Row | chemical stability [10] | solubility [13] | Compound | IC50 [1] | IC50 [2] | IC50 [3] | IC50 [4] | IC50 [5] | IC50 [6] | IC50 [7] | IC50 [8] | IC50 [9] | fold less effective at displacing TO from the fluorescent complex with DNA than 1 [11] | IC50 ([12]; Homo sapiens, all tested cancer and non-cancer cell lines, read-out: IC50 in either cell line) | Selectivity index (SI) ([12]; SI = mean [IC50 non-cancer cells]/mean [IC50 cancer cells]) | fold decrease of mean cytotoxicity compared to fascaplysin (1) ([12]; towards either cancerous or non-cancerous cells)
1 |  |  | O=C1c2ccccc2-[n+]2ccc3c([nH]c4ccccc43)c21 [Compound 1, fascaplysin] | 766 ± 126 nM | 242 nM | 798 ± 54 nM | 409 ± 20 nM | 457 ± 75 nM | 890 ± 46 nM | 458 ± 190 nM | 554 nM | 602 nM |  |  |  | 
2 | chemically highly unstable |  | O=C1c2ccccc2-[n+]2ccc3c([nH]c4ccc(O)cc43)c21 [Compound 26, 9-hydroxyfascaplysin] |  |  |  |  |  |  |  |  |  |  |  |  | 
3 |  |  | CC(C)(C)c1cc2c([nH]c3ccccc32)c2[n+]1-c1ccccc1C2=O [Compound 4, 6-tert-butylfascaplysin] | 1100 ± 76 nM | 580 ± 73 nM | 1730 ± 172 nM | 1330 ± 240 nM | 1820 ± 448 nM | 1370 ± 424 nM | 348 ± 90 nM | 1190 nM | 1180 nM | 7 fold | ≤ 2000 nM | 0.99 | ~ 2 fold
4 |  | extremely poorly soluble | O=c1ccc2nc3c(cc[n+]4c5ccccc5c(=O)c34)c-2c1 [Compound 27] |  |  |  |  |  |  |  |  |  |  |  |  | 
